The values that follow come from paper PMC3017052, “A Novel Peptide Derived from Human Apolipoprotein E Is an Inhibitor of Tumor Growth and Ocular Angiogenesis” (PLoS ONE, 2011).

For test [1], the system named is HUVEC. Nature of the test: Boyden chamber migration/invasion assay. Format: cell-based, human. Conditions: Boyden chamber transwell, 50 ng/mL VEGF, 16 hr at 37°C, apoEdp 6–100 µM; read-out: IC50, inhibition of VEGF-induced HUVEC migration and invasion. From the text:
The complex process of new blood vessel formation involves migration and invasion of ECs. The inhibition of EC motility through migration and invasion could thus be expected to affect the angiogenic process. To evaluate the ability of apoEdp in blocking VEGF-induced HUVEC migration and invasion, we used a Boyden chamber transwell assay (Materials and Methods). We quantified the invasion of HUVECs across the transwell. Cells which invaded across the membrane were stained with hematoxylin and eosin stain and counted (Fig. 4A–B). […] All values were normalized to cell numbers of transwells exposed to EBM containing 1% FBS without apoEdp and VEGF.
Figure 4 ApoEdp inhibits endothelial cell invasion. About 4×10^4 HUVECs were placed into each insert of Boyden chamber ([…]) (BD Biosciences) of 24-well transwell plate. The bottom chambers were filled with 600 µL medium supplemented with 50 ng/mL VEGF. The top chamber was seeded with approximately 4×10^4 HUVEC cells/well in 100 µL containing different concentrations of apoEdp and incubated at 37°C for 16 hs. HUVEC cells were then fixed and stained with H&E and counted under the microscope. […]
Boyden chamber migration/invasion assays were performed. […] Transwell invaded cells were counted using an inverted microscope. Three independent areas per filter were counted, and the mean ± SEM number of migrated cells was calculated.

The subject of test [2] is HUVEC. Nature of the test: Wound-healing/migration assay. Type of test: cell-based, human. The conditions noted are these: 50 ng/mL VEGF, apoEdp 6–100 µM, three independent experiments; read-out: IC50, inhibition of VEGF-induced HUVEC wound-healing migration. How it is done:
An important angiogenic phenotype of ECs induced by VEGF is cell migration. The major aspects of VEGF action on ECs are its ability to act as a chemoattractant and to stimulate the angiogenic morphogenesis. […] Cell migration was examined after simulation of an artificial wound by perturbation of a cell monolayer using a 1-mL pipette tip. […] (Fig. 2C).
Figure 2 ApoEdp inhibits wound-healing migration in vitro. Monolayers of HUVECs were scraped and incubated in medium containing 50 ng/mL VEGF in the presence or absence of various concentrations of apoEdp. VEGF stimulated the migration of HUVECs in the scraped area. Representative photomicrographs of cells treated with (A) VEGF alone or with (B) VEGF and apoEdp together are shown. Solid lines indicate the initial scraping. […] The bar diagram is the quantitative measurement of cell migration inside the scraped area. The data shown are representative of three independent experiments. ** p<0. 01; and *** p<0.001.
To determine the effect of apoEdp on EC migration induced by VEGF, wound-healing assays were performed using HUVEC cells. Cells were allowed to grow to confluency on 6-well plates and washed twice with PBS. […] Migration of the cells into the wounded area was photographed with an Olympus U-RLF-T microscope and counted. […]

For test [3], the system named is VEGF-induced corneal angiogenesis. The test can be described thus: Rabbit corneal micropocket assay (VEGF-induced angiogenesis). Format: in vivo. Conditions: 160 ng VEGF pellet, topical 1% eye drops 50 µL 5 times per day for 5 days, compared to saline treated eyes. On the procedure:
To study the in vivo anti-angiogenic effect of apoEdp, we assessed its inhibitory effect on VEGF-induced corneal micro-pocket assay in rabbit eye model. The slow release micropellet (500 µm×500 µm) of 0.4 g of Compritol 888 ATO (Gattefosse) combined with 0.1 g of Squalane oil (Sigma) and 20 mg/mL L-α-phosphatidylcholine containing saline or 160 ng of VEGF were surgically implanted in the corneal micropocket created in the avascular area of rabbit cornea (Fig. 5A–B).
Figure 5 ApoEdp inhibits angiogenesis in rabbit corneal micropocket assay. Slow-releasing micro pellets (500 µm×500 µm) containing 160 ng of VEGF were corneally implanted in New Zealand white rabbits (1.5–2.5 kg). […] (A)The area of neovascular response, vessel length, and clock hours of new blood vessel of rabbits in each group were calculated according to the formula Area (mm^2) = C/12×3.1416 [r^2−(r−L)^ 2] where C = the number of clock hours at the limbus involved in the neovascular response, L = length of the longest neovascular pedicle from the limbus onto anterior cornea, and r = radius of the cornea. […]
Corneal micropockets were created with a modified von Graefe cataract knife in eyes of each […] NZ white rabbit. […] The area of neovascular response, vessel length, and clock hours of new blood vessels of the rabbits in each group were calculated according to the formula [55]. […]

As for Ac-LRKLRKRLLLRKLRKRLL-NH2 [apoEdp], the IC50 is around 31.5 µM in the test on HUVEC [1] and around 21.5 µM in the test on HUVEC [2]. In addition, the “VEGF-induced angiogenesis in rabbit corneal micropocket” value in test [3] was “significantly inhibited VEGF-induced angiogenesis”.
